This series in a line: appearance of drug-loading micelle solution versus contrast sample. The format is physicochemical. Particulars: in 10 ml absolute ethanol.

For the compound `Oc1ccc(C=Cc2cc(O)cc(O)c2)cc1` [resveratrol], the appearance of solution result was “murky”.
